The OligoGym collection
HELM strings list units from the 5' end as sugar, base in round brackets, then linkage (d deoxyribose, r ribose, m 2'-O-methyl, p phosphodiester). Strings are as the collection lists them; they lack the last nucleoside at the 3' end of the tested compound. [moe] = 2'-O-(2-methoxyethyl) (MOE); [sp] = phosphorothioate linkage; [m5C] = 5-methylcytosine

Target: SCN2A
Experiment: mouse, dose not given
Conditions: ASO

Row | Substance | 3 h FOB score [score 0-7]
1 | RNA1{[moe](A)[sp].[moe](T)p.[moe](G)p.[moe](T)p.[moe](A)p.[moe](A)p.d(T)[sp].d([m5C])[sp].d(A)[sp].d([m5C])[sp].d(T)[sp].d(T)[sp].d(T)[sp].d([m5C])[sp].d(A)[sp].d(T)[sp].[moe]([m5C])p.[moe]([m5C])[sp].[moe](A)}$$$$ (last 3' nucleoside missing) | 0
2 | RNA1{[moe](T)[sp].[moe]([m5C])p.[moe](T)p.[moe](G)p.d([m5C])[sp].d(A)[sp].d(T)[sp].d(G)[sp].d(T)[sp].d(A)[sp].d(A)[sp].d([m5C])[sp].d([m5C])[sp].d(T)[sp].[moe](T)p.[moe](T)p.[moe](A)p.[moe](T)[sp].[moe](A)}$$$$ (last 3' nucleoside missing) | 1
3 | RNA1{[moe](T)[sp].[moe]([m5C])p.[moe]([m5C])p.[moe](A)p.[moe]([m5C])p.d(G)[sp].d(A)[sp].d([m5C])[sp].d(A)[sp].d(T)[sp].d(A)[sp].d(T)[sp].d(T)[sp].d(T)[sp].d(T)[sp].[moe](T)p.[moe]([m5C])p.[moe](T)[sp].[moe](A)}$$$$ (last 3' nucleoside missing) | 1.33
4 | RNA1{[moe](T)[sp].[moe]([m5C])p.[moe](A)p.[moe](G)p.d([m5C])[sp].d(A)[sp].d(T)[sp].d(G)[sp].d(T)[sp].d(T)[sp].d(T)[sp].d(A)[sp].d(T)[sp].d([m5C])[sp].[moe](T)p.[moe](T)p.[moe](A)p.[moe](G)[sp].[moe](T)}$$$$ (last 3' nucleoside missing) | 2.33
5 | RNA1{[moe](T)[sp].[moe](G)p.[moe](T)p.[moe](A)p.[moe](A)p.d([m5C])[sp].d([m5C])[sp].d(T)[sp].d(T)[sp].d(T)[sp].d(A)[sp].d(T)[sp].d(A)[sp].d([m5C])[sp].d(A)[sp].[moe](T)p.[moe](T)p.[moe](T)[sp].[moe](A)}$$$$ (last 3' nucleoside missing) | 0
6 | RNA1{[moe](T)[sp].[moe](G)p.[moe]([m5C])p.[moe]([m5C])p.[moe](A)p.[moe](T)p.d(T)[sp].d(T)[sp].d([m5C])[sp].d(T)[sp].d(A)[sp].d(T)[sp].d(A)[sp].d(A)[sp].d([m5C])[sp].d(T)[sp].[moe]([m5C])p.[moe](A)[sp].[moe](G)}$$$$ (last 3' nucleoside missing) | 0
7 | RNA1{[moe]([m5C])[sp].[moe](A)p.[moe](T)p.[moe](T)p.[moe](T)p.[moe]([m5C])p.d(T)[sp].d(A)[sp].d(T)[sp].d(A)[sp].d(A)[sp].d([m5C])[sp].d(T)[sp].d([m5C])[sp].d(A)[sp].d(G)[sp].[moe]([m5C])p.[moe](A)[sp].[moe](A)}$$$$ (last 3' nucleoside missing) | 0
8 | RNA1{[moe](A)[sp].[moe]([m5C])p.[moe]([m5C])p.[moe](G)p.[moe](A)p.[moe](A)p.d(T)[sp].d(T)[sp].d([m5C])[sp].d(T)[sp].d(A)[sp].d(T)[sp].d(T)[sp].d(T)[sp].d(T)[sp].d(A)[sp].[moe](T)p.[moe](A)[sp].[moe](A)}$$$$ (last 3' nucleoside missing) | 1.67
9 | RNA1{[moe](T)[sp].[moe](G)p.[moe](T)p.[moe](T)p.[moe](T)p.d(G)[sp].d(G)[sp].d(G)[sp].d(T)[sp].d([m5C])[sp].d(T)[sp].d([m5C])[sp].d(T)[sp].d(T)[sp].d(A)[sp].[moe](G)p.[moe]([m5C])p.[moe](T)[sp].[moe](T)}$$$$ (last 3' nucleoside missing) | 2.33
10 | RNA1{[moe]([m5C])[sp].[moe](A)p.[moe](G)p.[moe]([m5C])p.d(A)[sp].d(T)[sp].d(G)[sp].d(T)[sp].d(T)[sp].d(T)[sp].d(A)[sp].d(T)[sp].d([m5C])[sp].d(T)[sp].[moe](T)p.[moe](A)p.[moe](G)p.[moe](T)[sp].[moe](T)}$$$$ (last 3' nucleoside missing) | 0
11 | RNA1{[moe](G)[sp].[moe](G)p.[moe](G)p.[moe](A)p.[moe](T)p.d(A)[sp].d(G)[sp].d(T)[sp].d(G)[sp].d([m5C])[sp].d(T)[sp].d([m5C])[sp].d([m5C])[sp].d(A)[sp].d(T)[sp].[moe](A)p.[moe](G)p.[moe]([m5C])[sp].[moe]([m5C])}$$$$ (last 3' nucleoside missing) | 1.33
12 | RNA1{[moe]([m5C])[sp].[moe]([m5C])p.[moe](A)p.[moe](T)p.[moe](T)p.d(T)[sp].d([m5C])[sp].d(T)[sp].d(A)[sp].d(T)[sp].d(A)[sp].d(A)[sp].d([m5C])[sp].d(T)[sp].d([m5C])[sp].[moe](A)p.[moe](G)p.[moe]([m5C])[sp].[moe](A)}$$$$ (last 3' nucleoside missing) | 0
13 | RNA1{[moe](G)[sp].[moe](T)p.[moe](A)p.[moe](A)p.d([m5C])[sp].d([m5C])[sp].d(T)[sp].d(T)[sp].d(T)[sp].d(A)[sp].d(T)[sp].d(A)[sp].d([m5C])[sp].d(A)[sp].[moe](T)p.[moe](T)p.[moe](T)p.[moe](A)[sp].[moe](A)}$$$$ (last 3' nucleoside missing) | 0
14 | RNA1{[moe](T)[sp].[moe](T)p.[moe](T)p.[moe](G)p.d(G)[sp].d(G)[sp].d([m5C])[sp].d([m5C])[sp].d(A)[sp].d(T)[sp].d(T)[sp].d(T)[sp].d(T)[sp].d([m5C])[sp].[moe](A)p.[moe](T)p.[moe]([m5C])p.[moe](A)[sp].[moe](T)}$$$$ (last 3' nucleoside missing) | 0
15 | RNA1{[moe]([m5C])[sp].[moe](A)p.[moe](T)p.[moe](A)p.d(A)[sp].d(T)[sp].d([m5C])[sp].d([m5C])[sp].d([m5C])[sp].d(A)[sp].d(T)[sp].d(T)[sp].d(A)[sp].d(T)[sp].[moe](A)p.[moe]([m5C])p.[moe](A)p.[moe](A)[sp].[moe](A)}$$$$ (last 3' nucleoside missing) | 0
16 | RNA1{[moe](G)[sp].[moe](A)p.[moe]([m5C])p.[moe]([m5C])p.[moe](G)p.d(T)[sp].d([m5C])[sp].d(T)[sp].d([m5C])[sp].d(T)[sp].d(T)[sp].d(T)[sp].d([m5C])[sp].d(T)[sp].d(T)[sp].[moe](A)p.[moe](T)p.[moe](T)[sp].[moe](T)}$$$$ (last 3' nucleoside missing) | 0
17 | RNA1{[moe](A)[sp].[moe]([m5C])p.[moe]([m5C])p.[moe](G)p.[moe](T)p.d([m5C])[sp].d(T)[sp].d([m5C])[sp].d(T)[sp].d(T)[sp].d(T)[sp].d([m5C])[sp].d(T)[sp].d(T)[sp].d(A)[sp].[moe](T)p.[moe](T)p.[moe](T)[sp].[moe]([m5C])}$$$$ (last 3' nucleoside missing) | 7
18 | RNA1{[moe](G)[sp].[moe](T)p.[moe](T)p.[moe](T)p.d(T)[sp].d(T)[sp].d(T)[sp].d([m5C])[sp].d(A)[sp].d(T)[sp].d(T)[sp].d(G)[sp].d([m5C])[sp].d(A)[sp].[moe](T)p.[moe]([m5C])p.[moe]([m5C])p.[moe](T)[sp].[moe]([m5C])}$$$$ (last 3' nucleoside missing) | 1
19 | RNA1{[moe](A)[sp].[moe](A)p.[moe](T)p.[moe]([m5C])p.[moe](A)p.[moe]([m5C])p.d(T)[sp].d(T)[sp].d(T)[sp].d([m5C])[sp].d(A)[sp].d(T)[sp].d([m5C])[sp].d([m5C])[sp].d(A)[sp].d([m5C])[sp].[moe](G)p.[moe](A)[sp].[moe]([m5C])}$$$$ (last 3' nucleoside missing) | 0
20 | RNA1{[moe](T)[sp].[moe](G)p.[moe]([m5C])p.[moe](A)p.[moe](T)p.d(A)[sp].d(A)[sp].d(T)[sp].d([m5C])[sp].d([m5C])[sp].d([m5C])[sp].d(A)[sp].d(T)[sp].d(T)[sp].d(A)[sp].[moe](T)p.[moe](A)p.[moe]([m5C])[sp].[moe](A)}$$$$ (last 3' nucleoside missing) | 0
21 | RNA1{[moe]([m5C])[sp].[moe](A)p.[moe]([m5C])p.[moe](G)p.[moe](A)p.[moe]([m5C])p.d(A)[sp].d(T)[sp].d(A)[sp].d(T)[sp].d(T)[sp].d(T)[sp].d(T)[sp].d(T)[sp].d([m5C])[sp].d(T)[sp].[moe](A)p.[moe]([m5C])[sp].[moe](A)}$$$$ (last 3' nucleoside missing) | 0.5
22 | RNA1{[moe](G)[sp].[moe]([m5C])p.[moe](A)p.[moe](T)p.[moe](G)p.d(T)[sp].d(T)[sp].d(T)[sp].d(A)[sp].d(T)[sp].d([m5C])[sp].d(T)[sp].d(T)[sp].d(A)[sp].d(G)[sp].[moe](T)p.[moe](T)p.[moe]([m5C])[sp].[moe](T)}$$$$ (last 3' nucleoside missing) | 1
